# Measurements reported in PubChem BioAssay (NCI).
#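 At the GI50, growth is halved. TGI marks complete inhibition of growth.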
# How the values were obtained:
# Experiment in all cases: NCI tumour cell line growth inhibition, 384-well format
# [1] = system: 786-0 renal
# [2] = system: A498 renal
# [3] = system: A549 NSCLC
# [4] = system: ACHN renal
# [5] = system: BT-549 breast
# [6] = system: CAKI-1 renal
# [7] = system: CCRF-CEM leukemia
# [8] = system: COLO 205 colon
# [9] = system: DU-145 prostate
# [10] = system: EKVX NSCLC
# [11] = system: HCC-2998 colon
# [12] = system: HCT-15 colon
# [13] = system: HL-60(TB) leukemia
# [14] = system: HOP-62 NSCLC
# [15] = system: HOP-92 NSCLC
# [16] = system: HS 578T breast
# [17] = system: HT29 colon
# [18] = system: IGROV1 ovarian
# [19] = system: K-562 leukemia
# [20] = system: KM12 colon
# [21] = system: LOX IMVI melanoma
# [22] = system: M14 melanoma
# [23] = system: MALME-3M melanoma
# [24] = system: MCF7 breast
# [25] = system: MDA-MB-231 breast
# [26] = system: MDA-MB-435 melanoma
# [27] = system: MDA-MB-468 breast
# [28] = system: MOLT-4 leukemia
# [29] = system: NCI-H226 lung
# [30] = system: NCI-H23 lung
# [31] = system: NCI-H322M lung
# [32] = system: NCI-H460 NSCLC
# [33] = system: NCI-H522 lung
# [34] = system: NCI/ADR-RES ovarian
# [35] = system: OVCAR-3 ovarian
# [36] = system: OVCAR-4 ovarian
# [37] = system: OVCAR-5 ovarian
# [38] = system: OVCAR-8 ovarian
# [39] = system: PC-3 prostate
# [40] = system: RPMI-8226 leukemia
# [41] = system: RXF 393 renal
# [42] = system: SF-268 CNS
# [43] = system: SF-295 CNS
# [44] = system: SF-539 CNS
# [45] = system: SK-MEL-28 melanoma
# [46] = system: SK-MEL-5 melanoma
# [47] = system: SK-OV-3 ovarian
# [48] = system: SN12C renal
# [49] = system: SNB-19 CNS
# [50] = system: SNB-75 CNS
# [51] = system: SR leukemia
# [52] = system: SW-620 colon
# [53] = system: T-47D breast
# [54] = system: TK-10 renal
# [55] = system: U251 glioblastoma
# [56] = system: UACC-257 melanoma
# [57] = system: UACC-62 melanoma
# [58] = system: UO-31 renal
# [59] = system: HCT-116 colon
# [60] = system: SK-MEL-2 melanoma
smiles,measurement,setting,value
COc1cc(CCc2cc(NC(=O)c3ccc(N4C[C@@H](C)N[C@@H](C)C4)cc3)n[nH]2)cc(OC)c1,GI50,[1],3.07 µM
same,TGI,[1],9.35 µM
same,GI50,[2],3.66 µM
same,TGI,[2],13.7 µM
same,GI50,[3],4.71 µM
same,TGI,[3],15.7 µM
same,GI50,[4],4.46 µM
same,TGI,[4],15.9 µM
same,GI50,[5],1.95 µM
same,TGI,[5],8.13 µM
same,GI50,[6],3.65 µM
same,TGI,[6],14 µM
same,GI50,[7],2.33 µM
same,TGI,[7],4.13 µM
same,GI50,[8],2.31 µM
same,TGI,[8],5.36 µM
same,GI50,[9],5.91 µM
same,TGI,[9],18 µM
same,GI50,[10],10.4 µM
same,TGI,[10],22.2 µM
same,GI50,[11],3.82 µM
same,TGI,[11],12.8 µM
same,GI50,[12],3.39 µM
same,TGI,[12],11.2 µM
same,GI50,[13],1.83 µM
same,TGI,[13],3.28 µM
same,GI50,[14],5.65 µM
same,TGI,[14],17.3 µM
same,GI50,[15],3.61 µM
same,TGI,[15],15 µM
same,GI50,[16],2.19 µM
same,TGI,[16],4.58 µM
same,GI50,[17],1.85 µM
same,TGI,[17],3.72 µM
same,GI50,[18],3.8 µM
same,TGI,[18],14 µM
same,GI50,[19],2.5 µM
same,TGI,[19],4.83 µM
same,GI50,[20],0.0516 µM
same,TGI,[20],1.46 µM
same,GI50,[21],1.9 µM
same,TGI,[21],3.58 µM
same,GI50,[22],1.71 µM
same,TGI,[22],3.35 µM
same,GI50,[23],2.03 µM
same,TGI,[23],4.37 µM
same,GI50,[24],3.06 µM
same,TGI,[24],10.9 µM
same,GI50,[25],5.81 µM
same,TGI,[25],18.3 µM
same,GI50,[26],3.26 µM
same,TGI,[26],10.8 µM
same,GI50,[27],3.46 µM
same,TGI,[27],6.61 µM
same,GI50,[28],1.86 µM
same,TGI,[28],3.36 µM
same,GI50,[29],1.49 µM
same,TGI,[29],10.9 µM
same,GI50,[30],2.42 µM
same,TGI,[30],6.77 µM
same,GI50,[31],5.5 µM
same,TGI,[31],17.4 µM
same,GI50,[32],3.39 µM
same,TGI,[32],10.9 µM
same,GI50,[33],5.63 µM
same,TGI,[33],17.9 µM
same,GI50,[34],17.5 µM
same,TGI,[34],31.5 µM
same,GI50,[35],11.9 µM
same,TGI,[35],24.3 µM
same,GI50,[36],6.69 µM
same,TGI,[36],19.7 µM
same,GI50,[37],3.22 µM
same,TGI,[37],9.57 µM
same,GI50,[38],9.65 µM
same,TGI,[38],21.5 µM
same,GI50,[39],4.91 µM
same,TGI,[39],16.1 µM
same,GI50,[40],2.26 µM
same,TGI,[40],4.41 µM
same,GI50,[41],2.13 µM
same,TGI,[41],5.28 µM
same,GI50,[42],5.42 µM
same,TGI,[42],18.2 µM
same,GI50,[43],4.91 µM
same,TGI,[43],15.5 µM
same,GI50,[44],1.69 µM
same,TGI,[44],4.18 µM
same,GI50,[45],2.33 µM
same,TGI,[45],5.37 µM
same,GI50,[46],1.59 µM
same,TGI,[46],2.95 µM
same,GI50,[47],2.99 µM
same,TGI,[47],11 µM
same,GI50,[48],2.54 µM
same,TGI,[48],10.1 µM
same,GI50,[49],15.3 µM
same,TGI,[49],28.8 µM
same,GI50,[50],4.55 µM
same,TGI,[50],17.1 µM
same,GI50,[51],1.8 µM
same,TGI,[51],3.21 µM
same,GI50,[52],4.21 µM
same,TGI,[52],15.3 µM
same,GI50,[53],11.1 µM
same,TGI,[53],23.2 µM
same,GI50,[54],11.8 µM
same,TGI,[54],24.2 µM
same,GI50,[55],6.52 µM
same,TGI,[55],19 µM
same,GI50,[56],1.53 µM
same,TGI,[56],2.9 µM
same,GI50,[57],3.07 µM
same,TGI,[57],10.7 µM
same,GI50,[58],11.1 µM
same,TGI,[58],23.9 µM
Cn1cc(-c2ccc(=O)n(Cc3cccc(-c4ncc(OCCN5CCOCC5)cn4)c3)n2)cn1,GI50,[1],> 100 µM
same,TGI,[1],> 100 µM
same,GI50,[2],> 100 µM
same,TGI,[2],> 100 µM
same,GI50,[3],> 100 µM
same,TGI,[3],> 100 µM
same,GI50,[4],> 100 µM
same,TGI,[4],> 100 µM
same,GI50,[5],33.8 µM
same,TGI,[5],> 100 µM
same,GI50,[6],82.5 µM
same,TGI,[6],> 100 µM
same,GI50,[7],21.6 µM
same,TGI,[7],57.4 µM
same,GI50,[8],> 100 µM
same,TGI,[8],> 100 µM
same,GI50,[9],> 100 µM
same,TGI,[9],> 100 µM
same,GI50,[10],39.5 µM
same,TGI,[10],> 100 µM
same,GI50,[11],> 100 µM
same,TGI,[11],> 100 µM
same,GI50,[59],75.5 µM
same,TGI,[59],> 100 µM
same,GI50,[12],> 100 µM
same,TGI,[12],> 100 µM
same,GI50,[13],35.8 µM
same,TGI,[13],94.6 µM
same,GI50,[14],23.7 µM
same,TGI,[14],98.6 µM
same,GI50,[15],> 100 µM
same,TGI,[15],> 100 µM
same,GI50,[16],97.8 µM
same,TGI,[16],> 100 µM
same,GI50,[17],> 100 µM
same,TGI,[17],> 100 µM
same,GI50,[18],> 100 µM
same,TGI,[18],> 100 µM
same,GI50,[19],35.1 µM
same,TGI,[19],> 100 µM
same,GI50,[20],66.1 µM
same,TGI,[20],> 100 µM
same,GI50,[21],37.6 µM
same,TGI,[21],> 100 µM
same,GI50,[22],> 100 µM
same,TGI,[22],> 100 µM
same,GI50,[23],> 100 µM
same,TGI,[23],> 100 µM
same,GI50,[24],48.6 µM
same,TGI,[24],> 100 µM
same,GI50,[25],> 100 µM
same,TGI,[25],> 100 µM
same,GI50,[26],> 100 µM
same,TGI,[26],> 100 µM
same,GI50,[27],17.7 µM
same,TGI,[27],54.6 µM
same,GI50,[28],18.6 µM
same,TGI,[28],37.1 µM
same,GI50,[29],28.9 µM
same,TGI,[29],> 100 µM
same,GI50,[30],14.5 µM
same,TGI,[30],> 100 µM
same,GI50,[31],> 100 µM
same,TGI,[31],> 100 µM
same,GI50,[32],72 µM
same,TGI,[32],> 100 µM
same,GI50,[33],62.6 µM
same,TGI,[33],> 100 µM
same,GI50,[34],32.9 µM
same,TGI,[34],> 100 µM
same,GI50,[35],> 100 µM
same,TGI,[35],> 100 µM
same,GI50,[36],78.3 µM
same,TGI,[36],> 100 µM
same,GI50,[37],> 100 µM
same,TGI,[37],> 100 µM
same,GI50,[38],61.8 µM
same,TGI,[38],> 100 µM
same,GI50,[39],67.8 µM
same,TGI,[39],> 100 µM
same,GI50,[40],24.9 µM
same,TGI,[40],> 100 µM
same,GI50,[41],56.6 µM
same,TGI,[41],> 100 µM
same,GI50,[42],> 100 µM
same,TGI,[42],> 100 µM
same,GI50,[43],71.2 µM
same,TGI,[43],> 100 µM
same,GI50,[44],> 100 µM
same,TGI,[44],> 100 µM
same,GI50,[60],> 100 µM
same,TGI,[60],> 100 µM
same,GI50,[45],> 100 µM
same,TGI,[45],> 100 µM
same,GI50,[46],16.5 µM
same,TGI,[46],36.8 µM
same,GI50,[47],> 100 µM
same,TGI,[47],> 100 µM
same,GI50,[48],> 100 µM
same,TGI,[48],> 100 µM
same,GI50,[49],> 100 µM
same,TGI,[49],> 100 µM
same,GI50,[50],98.9 µM
same,TGI,[50],> 100 µM
same,GI50,[52],> 100 µM
same,TGI,[52],> 100 µM
same,GI50,[53],18.3 µM
same,TGI,[53],72.2 µM
same,GI50,[54],> 100 µM
same,TGI,[54],> 100 µM
same,GI50,[55],64.2 µM
same,TGI,[55],> 100 µM
same,GI50,[56],55.5 µM
same,TGI,[56],> 100 µM
same,GI50,[57],> 100 µM
same,TGI,[57],> 100 µM
same,GI50,[58],> 100 µM
same,TGI,[58],> 100 µM
